Source: the supplement of paper PMC10331698
± gives the standard deviation of the averaged measurements.

How the values were obtained:
Assay in all cases: level (log10 ratio to DMSO vehicle control); higher = higher biomarker level / cell amount than vehicle control
Details in all cases: in DMSO
[1] = compound: CCN(CCO)S(=O)(=O)C(F)(F)C(F)(F)C(F)(F)C(F)(F)C(F)(F)C(F)(F)C(F)(F)C(F)(F)F [N-Ethyl-N-(2-hydroxyethyl)perfluorooctanesulfonamide]
Method: (§1)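 BioMAP Diversity Plus panel of 12 human primary cell co-culture systems (3C, 4H, LPS, SAg, BT, BF4T, BE3C, CASM3C, HDF3CGF, KF3CT, MyoF, Mphg). Compounds were added 1 h before stimulation and left for 24 h (MyoF 48 h; BT 72 h for soluble read-outs or 6 d for IgG). Biomarkers were read by ELISA, cytotoxicity by SRB, PBMC viability and proliferation by Alamar Blue. Each well value was divided by the mean of 8 DMSO control wells on the same plate and log10 transformed; duplicate blinded samples were tested at 4 concentrations.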

[2] = compound: COC(=O)CCC(F)(F)C(F)(F)C(F)(F)C(F)(F)F [Methyl 2H,2H,3H,3H-perfluoroheptanoate]
Method: as §1

[3] = compound: FC(F)(F)C(F)(F)C(F)(F)C(F)(F)C(F)(F)C(F)(F)C(F)(F)C(F)(F)CCS [2-(Perfluorooctyl)ethanthiol]
Method: as §1

[4] = compound: FC(F)(F)C(F)(F)C(F)(F)C(F)(F)C(F)(F)CCI [1-Iodo-1H,1H,2H,2H-perfluoroheptane]
Method: as §1

[5] = compound: NCC(F)(F)C(F)(F)C(F)(F)C(F)(F)C(F)(F)C(F)(F)C(F)(F)F [1H,1H-Perfluorooctylamine]
Method: as §1

[6] = compound: O=C(O)C(F)(F)C(F)(F)C(F)(F)C(F)(F)C(F)(F)C(F)(F)C(F)(F)C(F)F [9-H-Perfluorononanoic acid]
Method: as §1

[7] = compound: OCCC(F)(F)C(F)(F)C(F)(F)C(F)(F)C(F)(F)C(F)(F)F [6:2 Fluorotelomer alcohol]
Method: as §1

Row | Test System | level (log10) ([1]; 6700 nM) | level (log10) ([1]; 20000 nM) | level (log10) ([2]; 6700 nM) | level (log10) ([2]; 20000 nM) | level (log10) ([2]; 60000 nM) | level (log10) ([3]; 6700 nM) | level (log10) ([3]; 20000 nM) | level (log10) ([4]; 6700 nM) | level (log10) ([4]; 20000 nM) | level (log10) ([4]; 60000 nM) | level (log10) ([5]; 6700 nM) | level (log10) ([5]; 20000 nM) | level (log10) ([5]; 60000 nM) | level (log10) ([6]; 6700 nM) | level (log10) ([6]; 20000 nM) | level (log10) ([6]; 60000 nM) | level (log10) ([7]; 6700 nM) | level (log10) ([7]; 20000 nM)
1 | CASM3C:LDLR | -0.076 ± 0.0057 | -0.223 ± 0.021 | 0.016 ± 0.0099 | 0.0095 ± 0.005 | 0.033 ± 0.028 | -0.025 ± 0.04 | -0.0505 ± 0.0092 | 0.0005 ± 0.011 | 0.009 | 0.013 ± 0.016 | -0.0295 ± 0.005 | -0.018 ± 0.023 | 0.007 ± 0.0042 | -0.003 ± 0.018 | -0.005 ± 0.0042 | 0.009 ± 0.024 | 0.031 ± 0.011 | 0.023 ± 0.0028
2 | MyoF:MMP-1 | 0.069 ± 0.021 | 0.426 ± 0.052 | -0.009 ± 0.0071 | -0.019 ± 0.011 | 0.0305 ± 0.12 | -0.0265 ± 0.0092 | -0.0545 ± 0.037 | -0.013 ± 0.038 | -0.0185 ± 0.037 | 0.037 ± 0.011 | -0.0095 ± 0.016 | -0.0395 ± 0.012 | -0.0055 ± 0.025 | -0.015 ± 0.0099 | -0.005 | -0.0215 ± 0.023 | 0 ± 0.016 | -0.0035 ± 0.005
3 | CASM3C:CD106/VCAM-1 | -0.085 ± 0.0057 | -0.219 ± 0.021 | -0.021 ± 0.027 | -0.019 ± 0.0071 | -0.0085 ± 0.005 | -0.0135 ± 0.005 | -0.014 ± 0.0099 | 0.0215 ± 0.005 | -0.0015 ± 0.0078 | -0.063 ± 0.0014 | -0.018 ± 0.058 | -0.007 ± 0.035 | -0.0105 ± 0.015 | -0.0215 ± 0.012 | -0.019 ± 0.02 | -0.0315 ± 0.005 | 0.0105 ± 0.018 | 0.017 ± 0.0099
4 | HDF3CGF:M-CSF | -0.101 ± 0.013 | -0.27 ± 0.0071 | -0.0125 ± 0.0064 | -0.008 ± 0.013 | 0.002 ± 0.011 | -0.0185 ± 0.013 | -0.014 ± 0.0099 | -0.0275 ± 0.053 | -0.0415 ± 0.011 | -0.198 ± 0.11 | -0.0255 ± 0.0064 | -0.031 ± 0.061 | -0.027 ± 0.069 | -0.067 ± 0.0028 | -0.0835 ± 0.011 | -0.05 ± 0.027 | -0.009 ± 0.0099 | -0.0075 ± 0.0021
5 | HDF3CGF:Proliferation 72hr | -0.391 ± 0.079 | -0.746 ± 0.094 | 0.011 ± 0.0057 | 0.013 ± 0.0057 | 0.0705 ± 0.044 | -0.003 ± 0.0071 | -0.0115 ± 0.013 | -0.058 ± 0.0099 | -0.257 ± 0.04 | -0.832 ± 0.16 | -0.041 ± 0.045 | 0.004 ± 0.035 | -0.016 ± 0.041 | 0.062 ± 0.018 | 0.0905 ± 0.049 | -0.0045 ± 0.098 | -0.007 ± 0.05 | 0.0005 ± 0.086
6 | CASM3C:M-CSF | 0.0045 ± 0.00071 | 0.0395 ± 0.0092 | -0.0155 ± 0.016 | -0.031 ± 0.021 | 0.013 ± 0.054 | 0.013 ± 0.0014 | 0.047 ± 0.014 | -0.0055 ± 0.035 | -0.0145 ± 0.011 | -0.0265 ± 0.0092 | -0.059 ± 0.027 | -0.0055 ± 0.0078 | 0.0115 ± 0.061 | -0.007 ± 0.0014 | -0.012 ± 0.0028 | 0.0205 ± 0.028 | -0.018 ± 0.0014 | 0.019 ± 0.016
7 | CASM3C:PAI-I | 0 ± 0.0071 | 0.004 ± 0.0085 | -0.0195 ± 0.0078 | -0.006 ± 0.0099 | -0.0095 ± 0.016 | -0.014 ± 0.017 | 0.0055 ± 0.026 | 0.003 ± 0.0042 | 0.001 ± 0.0014 | 0.007 ± 0.0042 | -0.0055 ± 0.012 | 0.0025 ± 0.0064 | -0.0015 ± 0.005 | 0.0135 ± 0.021 | -0.004 ± 0.0042 | 0.0085 ± 0.022 | 0.0105 ± 0.00071 | 0.005 ± 0.0057
